# Patent US20240277722A1, “CANCER THERAPY USING A COMBINATION OF CDK7 INHIBITOR WITH AN ANTI-CANCER AGENT” (Aurigene Oncology Limited, priority 2021, published 2024)
# Several values for one entry are separate records, joined by “and”; a condition that tells them apart may be missing. Equal entries are not always repeated.
# Columns and labels:
# MCF-7 cells = experiment: MCF-7 cell proliferation, CTG reagent, 6-day treatment, single agents and combination (CompuSyn synergy analysis); type: cell-based
# Procedure: The effect of 6-day compound treatment on cell proliferation was measured using CTG reagent.
# Z-138 cells = experiment: Z-138 cell proliferation, CTG reagent, 3-day treatment, single agents and combination (CompuSyn synergy analysis); type: cell-based; settings: for % Inhibition in proliferation: 3 days
# Procedure: Z-138 cells were treated with serial dilutions of Compound-44A (CDK7 inhibitor), serial dilutions of venetoclax individually and in combination for 3 days. The effect of 3-day compound treatment on cell proliferation was measured using CTG reagent. Percentage inhibition of cell proliferation in individual (Compound-44A, venetoclax) and combination treatments (Compound-44A+venetoclax) were analyzed using CompuSyn software to assess synergy.
compound,measurement,setting,value
"C[C@]12CC[C@@H]3c4ccc(O)cc4C[C@@H](CCCCCCCCC[S+]([O-])CCCC(F)(F)C(F)(F)F)[C@H]3[C@@H]1CC[C@@H]2O (stereo partly shown) [Fulvestrant, fulvestrant]",% Inhibition in proliferation,"MCF-7 cells; Fulvestrant 0.000000164 nM + Compound-44A 0.00 nM, 6 days",2.8%
same,% Inhibition of proliferation,"MCF-7 cells; Fulvestrant 0.000000164 nM, Day-6",0.6% and 2.7% and 4.9%
same,% Inhibition in proliferation,"MCF-7 cells; Fulvestrant 0.000000819 nM + Compound-44A 0.00 nM, 6 days",10.4%
same,% Inhibition in proliferation,"MCF-7 cells; Fulvestrant 0.000004096 nM + Compound-44A 0.00 nM, 6 days",5.0%
same,% Inhibition of proliferation,"MCF-7 cells; Fulvestrant 0.000004096 nM, Day-6",6.6% and 7.7% and 0.7%
same,% Inhibition in proliferation,"MCF-7 cells; Fulvestrant 0.00002048 nM + Compound-44A 0.00 nM, 6 days",7.1%
same,% Inhibition of proliferation,"MCF-7 cells; Fulvestrant 0.00002048 nM, Day-6",7.2% and 5.9%
same,% Inhibition in proliferation,"MCF-7 cells; Fulvestrant 0.0001024 nM + Compound-44A 0.00 nM, 6 days",0.9%
same,% Inhibition of proliferation,"MCF-7 cells; Fulvestrant 0.0001024 nM, Day-6",4.2% and −1.2% and −0.1%
same,% Inhibition in proliferation,"MCF-7 cells; Fulvestrant 0.000512 nM + Compound-44A 0.00 nM, 6 days",7.5%
same,% Inhibition of proliferation,"MCF-7 cells; Fulvestrant 0.000512 nM, Day-6",3.2% and 7.4% and 11.8%
same,% Inhibition in proliferation,"MCF-7 cells; Fulvestrant 0.00256 nM + Compound-44A 0.00 nM, 6 days",3.4%
same,% Inhibition in proliferation,"MCF-7 cells; Fulvestrant 0.0128 nM + Compound-44A 0.00 nM, 6 days",1.5%
same,% Inhibition in proliferation,"MCF-7 cells; Fulvestrant 0.064 nM + Compound-44A 0.00 nM, 6 days",−1.2%
same,% Inhibition of proliferation,"MCF-7 cells; Fulvestrant 0.064 nM, Day-6",3.9% and −2.5% and −5%
same,% Inhibition in proliferation,"MCF-7 cells; Fulvestrant 0.32 nM + Compound-44A 0.00 nM, 6 days",24.2%
same,% Inhibition of proliferation,"MCF-7 cells; Fulvestrant 0.32 nM, Day-6",27.7% and 23.3%
same,% Inhibition in proliferation,"MCF-7 cells; Fulvestrant 1.6 nM + Compound-44A 0.00 nM, 6 days",79.8%
same,% Inhibition of proliferation,"MCF-7 cells; Fulvestrant 1.6 nM, Day-6",78.6% and 80%
same,% Inhibition in proliferation,"MCF-7 cells; Fulvestrant 8 nM + Compound-44A 0.00 nM, 6 days",87.5%
same,% Inhibition of proliferation,"MCF-7 cells; Fulvestrant 8 nM, Day-6",88.4% and 86.3%
same,% Inhibition in proliferation,"MCF-7 cells; Fulvestrant 40 nM + Compound-44A 0.00 nM, 6 days",86.9%
same,% Inhibition of proliferation,"MCF-7 cells; Fulvestrant 40 nM, Day-6",86%
same,% Inhibition in proliferation,"MCF-7 cells; Fulvestrant 1000 nM + Compound-44A 0.00 nM, 6 days",88.7%
same,% Inhibition of proliferation,"MCF-7 cells; Fulvestrant 1000 nM, Day-6",90.2%
same,% Inhibition in proliferation,"MCF-7 cells; Fulvestrant 3000 nM + Compound-44A 0.00 nM, 6 days",90.0%
same,% Inhibition of proliferation,"MCF-7 cells; Fulvestrant 3000 nM, Day-6",90.6% and 89.5%
same,% Inhibition in proliferation,"MCF-7 cells; Fulvestrant 10000 nM + Compound-44A 0.00 nM, 6 days",95.0%
same,% Inhibition of proliferation,"MCF-7 cells; Fulvestrant 10000 nM, Day-6",95.7% and 95.1%
same,inhibition at 20.48 fM,"MCF-7 cells; Homo sapiens, MCF7, Fulvestrant 0.00002048 nM, Day-6",8.1%
same,inhibition at 0.00032 µM,"MCF-7 cells; Homo sapiens, MCF7, Fulvestrant 0.32 nM, Day-6",21.6%
same,inhibition at 0.0016 µM,"MCF-7 cells; Homo sapiens, MCF7, Fulvestrant 1.6 nM, Day-6",80.9%
same,inhibition at 0.008 µM,"MCF-7 cells; Homo sapiens, MCF7, Fulvestrant 8 nM, Day-6",87.8%
same,inhibition at 0.04 µM,"MCF-7 cells; Homo sapiens, MCF7, Fulvestrant 40 nM, Day-6",85.9%
same,inhibition at 0.2 µM,"MCF-7 cells; Homo sapiens, MCF7, Fulvestrant 200 nM, Day-6",85.8%
same,inhibition at 1 µM,"MCF-7 cells; Homo sapiens, MCF7, Fulvestrant 1000 nM, Day-6",88.8%
same,inhibition at 3 µM,"MCF-7 cells; Homo sapiens, MCF7, Fulvestrant 3000 nM, Day-6",89.9%
same,inhibition at 10 µM,"MCF-7 cells; Homo sapiens, MCF7, Fulvestrant 10000 nM, Day-6",94.3%
same,inhibition of proliferation in MCF-7 cells,"MCF-7 cells; single agent, serial dilutions, 6 days",dose dependent inhibition of proliferation
"CC1(C)CCC(CN2CCN(c3ccc(C(=O)NS(=O)(=O)c4ccc(NCC5CCOCC5)c([N+](=O)[O-])c4)c(Oc4cnc5[nH]ccc5c4)c3)CC2)=C(c2ccc(Cl)cc2)C1 [Venetoclax, venetoclax]",inhibition at 0.004572 µM,"Z-138 cells; Homo sapiens, Z-138, Venetoclax 0.004572 μM, Day-3",7.4%
same,inhibition at 0.013717 µM,"Z-138 cells; Homo sapiens, Z-138, Venetoclax 0.013717 μM, Day-3",18.9%
same,inhibition at 0.041152 µM,"Z-138 cells; Homo sapiens, Z-138, Venetoclax 0.041152 μM, Day-3",35.6%
same,inhibition at 0.123457 µM,"Z-138 cells; Homo sapiens, Z-138, Venetoclax 0.123457 μM, Day-3",49.8%
same,inhibition at 0.37037 µM,"Z-138 cells; Homo sapiens, Z-138, Venetoclax 0.370370 μM, Day-3",63.8%
same,inhibition at 1.11111 µM,"Z-138 cells; Homo sapiens, Z-138, Venetoclax 1.111111 μM, Day-3",75.6%
same,inhibition at 3.33333 µM,"Z-138 cells; Homo sapiens, Z-138, Venetoclax 3.333333 μM, Day-3",90.5%
same,inhibition at 10 µM,"Z-138 cells; Homo sapiens, Z-138, Venetoclax 10.000000 μM, Day-3",99.7%
same,inhibition at 30 µM,"Z-138 cells; Homo sapiens, Z-138, Venetoclax 30.000000 μM, Day-3",99.9%
same,% Inhibition in proliferation,Z-138 cells; Venetoclax 0.000006 μM + Compound-44A 0.0 μM,−3.0%
same,% Inhibition of proliferation,"Z-138 cells; Venetoclax 0.000006 μM, Day-3",1.6% and −2.7% and −8.2%
same,% Inhibition in proliferation,Z-138 cells; Venetoclax 0.000019 μM + Compound-44A 0.0 μM,−10.0%
same,% Inhibition in proliferation,Z-138 cells; Venetoclax 0.000169 μM + Compound-44A 0.0 μM,−9.0%
same,% Inhibition in proliferation,Z-138 cells; Venetoclax 0.000508 μM + Compound-44A 0.0 μM,−10.0%
same,% Inhibition in proliferation,Z-138 cells; Venetoclax 0.001524 μM + Compound-44A 0.0 μM,−0.2%
same,% Inhibition in proliferation,Z-138 cells; Venetoclax 0.004572 μM + Compound-44A 0.0 μM,8.0%
same,% Inhibition of proliferation,"Z-138 cells; Venetoclax 0.004572 μM, Day-3",6.3% and 11.2%
same,% Inhibition in proliferation,Z-138 cells; Venetoclax 0.013717 μM + Compound-44A 0.0 μM,19.0%
same,% Inhibition of proliferation,"Z-138 cells; Venetoclax 0.013717 μM, Day-3",19.7%
same,% Inhibition in proliferation,Z-138 cells; Venetoclax 0.041152 μM + Compound-44A 0.0 μM,33.0%
same,% Inhibition of proliferation,"Z-138 cells; Venetoclax 0.041152 μM, Day-3",29.6% and 34.7%
same,% Inhibition in proliferation,Z-138 cells; Venetoclax 0.123457 μM + Compound-44A 0.0 μM,53.0%
same,% Inhibition of proliferation,"Z-138 cells; Venetoclax 0.123457 μM, Day-3",53.8% and 55.1%
same,% Inhibition in proliferation,Z-138 cells; Venetoclax 0.370370 μM + Compound-44A 0.0 μM,65.0%
same,% Inhibition of proliferation,"Z-138 cells; Venetoclax 0.370370 μM, Day-3",65.2% and 66.6%
same,% Inhibition in proliferation,Z-138 cells; Venetoclax 1.111111 μM + Compound-44A 0.0 μM,76.0%
same,% Inhibition of proliferation,"Z-138 cells; Venetoclax 1.111111 μM, Day-3",73.5% and 78.1%
same,% Inhibition in proliferation,Z-138 cells; Venetoclax 3.333333 μM + Compound-44A 0.0 μM,92.0%
same,% Inhibition of proliferation,"Z-138 cells; Venetoclax 3.333333 μM, Day-3",91.6% and 92.6%
same,% Inhibition in proliferation,Z-138 cells; Venetoclax 10.0 μM + Compound-44A 0.0 μM,100.0%
same,% Inhibition of proliferation,"Z-138 cells; Venetoclax 10.000000 μM, Day-3",99.8% and 100%
same,% Inhibition in proliferation,Z-138 cells; Venetoclax 30.0 μM + Compound-44A 0.0 μM,100.0%
same,% Inhibition of proliferation,"Z-138 cells; Venetoclax 30.000000 μM, Day-3",100.1%
same,% Inhibition in proliferation,Z-138 cells; Venetoclax […] + Compound-44A 0.0 μM,−10.0%
